# Test results taken from patent US20260256925A1, “INDAZOLE DERIVATIVES AS ESTROGEN RECEPTOR DEGRADERS” (REGENTS OF THE UNIVERSITY OF MICHIGAN, priority 2022, published 2026).
# What was measured:
# ER = molecular target: T1, ER (Homo sapiens, UniProt P03372); test: In-cell western blot analysis, relative ER percentage (compounds B1-B126); assay type: cell-based; details: ER degradation, 16 hours, read-out: ICW DC50
# T1 construct: endogenous in cells; probably T47D or MCF-7
# T1 sequence (P03372 1-595): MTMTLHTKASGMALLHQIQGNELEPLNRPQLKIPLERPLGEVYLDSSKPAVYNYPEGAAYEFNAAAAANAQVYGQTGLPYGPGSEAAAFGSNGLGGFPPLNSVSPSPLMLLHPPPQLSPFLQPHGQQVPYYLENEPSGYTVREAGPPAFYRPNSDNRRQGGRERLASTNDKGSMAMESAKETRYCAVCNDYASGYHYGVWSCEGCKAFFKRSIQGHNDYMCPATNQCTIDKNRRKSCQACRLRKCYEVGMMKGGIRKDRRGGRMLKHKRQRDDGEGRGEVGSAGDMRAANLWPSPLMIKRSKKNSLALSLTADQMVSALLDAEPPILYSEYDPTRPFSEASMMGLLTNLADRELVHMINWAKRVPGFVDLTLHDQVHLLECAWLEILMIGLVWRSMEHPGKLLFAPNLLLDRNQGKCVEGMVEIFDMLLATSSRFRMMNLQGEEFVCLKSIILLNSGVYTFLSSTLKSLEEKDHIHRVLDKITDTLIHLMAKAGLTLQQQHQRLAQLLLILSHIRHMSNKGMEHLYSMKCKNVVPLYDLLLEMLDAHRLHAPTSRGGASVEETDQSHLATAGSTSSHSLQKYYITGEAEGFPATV
# Experimental: In-cell western blot analysis. Cells are seeded in multi-well plates (e.g., at 40,000 or 10,000 cells/well). Diluted compounds at certain concentration are added (final 0.5% DMSO) and cells are incubated for a certain period of time (e.g., 16 hours). Formaldehyde (e.g., PBS: FA=9:1) is added and followed by washing with PBS. The cells are blocked with Licor blocking buffer (Li-Cor). The relative ER percentage in treated cells are obtained by comparing the values of treated wells to those in untreated and DMSO-treated wells as 100%.
# In-cell western blot analysis. a. seed cells in black-sided/clear bottom 96- or 384-well plates at 40,000 or 10,000 cells/well, overnight; b. add diluted compounds (final 0.5% DMSO), 16 hours. […] RT 2h, gentle shaking. Negative control: cells plus secondary antibodies (no primary antibodies); e. wash×4 with PBS +0.05-0.1% Tween 20, gentel shaking; f. anti-rabbit-680 and anti-mouse-800 (both 1:1000 in LiCor block+0.05% Tween20, RT 1h, gentle shaking, no light. LI-COR: 0.2% to reduce background; g. wash×4 with PBS+0.05% Tween 20, gental shaking; h. add 100 μL or 25 μL of PBS to each well and read on CLX plate reader. The relative ER percentage in treated cells were obtained by comparing the values of treated wells to those in untreated and DMSO-treated wells as 100%.
# [1] = Cell growth assay, WST-8 (compounds B1-B126); assay type: cell-based; details: 96 h; T47D cell line, WST-8, 4 days; read-out: Cell growth inhibition in T47D cell line IC50
# Experimental: Cell Growth Assay. The cells are seeded at certain concentration (e.g., at 1500/well) in multi-well plates overnight. Cells are subsequently treated with the compounds. A certain period of time (e.g., 4 days) after the compound treatment, 10% WST-8 reagent is added to the culture medium and incubate under certain condiction (e.g., in a CO2 incubator at 37° C. for 2.5 hours). The absorbance is measured on each sample using a microplate reader at certain wavelength (e.g., 450 nm). The relative absorbance is calculated against the vehicle control from three individually repeats.
# Cell Growth Assay. The cells were seeded at 1500/well in 96 well plates overnight. One day after the seeding, they were treated with indicated doses of compounds respectively. 4 days after the compound treatment, 10% WST-8 reagent was added to the culture medium and incubate in a CO2 incubator at 37° C. for 2.5 hours. Before reading, the plate was mixed gently on an orbital shaker for one minute to ensure homogeneous distribution of color. The absorbance was measured of each sample using a microplate reader at a wavelength of 450 nm. The relative absorbance was calculated against the vehicle control from three individually repeats.
Structure (SMILES),DC50 (ER),IC50 [1]
"C[C@@H]1Cc2c(ccc3[nH]ncc23)[C@@H](c2ccc(N3CC4(CCC(CN5CCC6(CC5)COc5c6ccc6c5CN(C5CCC(=O)NC5=O)C6=O)CC4)C3)cn2)N1CC(F)(F)F (stereo partly drawn) [Compound B57, 3-(1′-((2-(6-((6S,8R)-8-mcthyl-7-(2,2,2-trifluoroethyl)-6,7,8,9-tetrahydro-3H-pyrazolo[4,3-f]isoquinolin-6-yl)pyridin-3-yl)-2-azaspiro[3.5]nonan-7-yl)methyl)-6-oxo-6,8-dihydro-2H,7H-spiro[furo[2,3-e]isoindole-3,4′-piperidin]-7-yl)piperidine-2,6-dione]",< 0.01 µM,< 0.001 µM
"C[C@@H]1Cc2c(ccc3[nH]ncc23)[C@@H](c2ccc(N3CCC4(CC3)CC(CN3CCC5(CC3)COc3c5ccc5c3CN(C3CCC(=O)NC3=O)C5=O)C4)cn2)N1CC(F)(F)F (stereo partly drawn) [Compound B60, 3-(1′-((7-(6-((6S,8R)-8-methyl-7-(2,2,2-trifluoroethyl)-6,7,8,9-tetrahydro-3H-pyrazolo[4,3-f]isoquinolin-6-yl)pyridin-3-yl)-7-azaspiro[3.5]nonan-2-yl)methyl)-6-oxo-6,8-dihydro-2H,7H-spiro[furo[2,3-e]isoindole-3,4′-piperidin]-7-yl)piperidine-2,6-dione]",< 0.01 µM,< 0.001 µM
"COc1cc(N2CCC(N3CC(N4CCN5c6cc7c(cc6OC[C@@H]5C4)C(=O)N(C4CCC(=O)NC4=O)C7)C3)CC2)ccc1[C@@H]1c2ccc3[nH]ncc3c2C[C@@H](C)N1CC(F)F (stereo partly drawn) [Compound B53, 3-((S)-3-(1-(1-(4-((6S,8R)-7-(2,2-difluoroethyl)-8-methyl-6,7,8,9-tetrahydro-3H-pyrazolo[4,3-f]isoquinolin-6-yl)-3-methoxyphenyl)piperidin-4-yl)azetidin-3-yl)-8-oxo-1,2,3,4,4a,5,8,10-octahydro-9H-pyrazino[1′,2′:4,5][1,4]oxazino[2,3-f]isoindol-9-yl)piperidine-2,6-dione]",0.01 to 0.1 µM,< 0.001 µM
"C[C@@H]1Cc2c(ccc3[nH]ncc23)[C@@H](c2cnc(N3CCC4(CC3)CC(CN3CCN5c6ccc7c(c6OC[C@H]5C3)CN(C3CCC(=O)NC3=O)C7=O)C4)nc2)N1CC(F)(F)F (stereo partly drawn) [Compound B112, 3-((R)-7-((7-(5-((6S,8R)-8-methyl-7-(2,2,2-trifluoroethyl)-6,7,8,9-tetrahydro-3H-pyrazolo[4,3-f]isoquinolin-6-yl)pyrimidin-2-yl)-7-azaspiro[3.5]nonan-2-yl)methyl)-1-oxo-1,3,5,5a,6,7,8,9-octahydro-2H-pyrazino[1′,2′:4,5][1,4]oxazino[2,3-e]isoindol-2-yl)piperidine-2,6-dione]",< 0.01 µM,< 0.001 µM
"COc1cc(N2CCC3(CC2)CC(CN2CCN4c5ccc6c(c5OC[C@H]4C2)CN(C2CCC(=O)NC2=O)C6=O)C3)ccc1[C@@H]1c2ccc3[nH]ncc3c2C[C@@H](C)N1CC(F)F (stereo partly drawn) [Compound B82, 3-((R)-7-((7-(4-((6S,8R)-7-(2,2-difluoroethyl)-8-methyl-6,7,8,9-tetrahydro-3H-pyrazolo[4,3-f]isoquinolin-6-yl)-3-methoxyphenyl)-7-azaspiro[3.5]nonan-2-yl)methyl)-1-oxo-1,3,5,5a,6,7,8,9-octahydro-2H-pyrazino[1′,2′:4,5][1,4]oxazino[2,3-e]isoindol-2-yl)piperidine-2,6-dione]",0.01 to 0.1 µM,< 0.001 µM

# Further lines, with some results ahead:
DC50 (ER),Structure (SMILES),IC50 [1]
< 0.01 µM,"C[C@@H]1Cc2c(ccc3[nH]ncc23)[C@@H](c2ccc(N3CCC(N4CC(N5CCN6c7cc8c(cc7OC[C@@H]6C5)C(=O)N(C5CCC(=O)NC5=O)C8)C4)CC3)cn2)N1CC(F)(F)F (stereo partly drawn) [Compound B52, 3-((S)-3-(1-(1-(6-((6S,8R)-8-methyl-7-(2,2,2-trifluoroethyl)-6,7,8,9-tetrahydro-3H-pyrazolo[4,3-f]isoquinolin-6-yl)pyridin-3-yl)piperidin-4-yl)azetidin-3-yl)-8-oxo-1,2,3,4,4a,5,8,10-octahydro-9H-pyrazino[1′,2′:4,5][1,4]oxazino[2,3-f]isoindol-9-yl)piperidine-2,6-dione]",< 0.001 µM
< 0.01 µM,"C[C@@H]1Cc2c(ccc3[nH]ncc23)[C@@H](c2ccc(N3CC4(CCC(CN5CCN6c7cc8c(cc7N(C)C[C@@H]6C5)C(=O)N(C5CCC(=O)NC5=O)C8)CC4)C3)cn2)N1CC(F)(F)F (stereo partly drawn) [Compound B59, 3-((S)-6-methyl-3-((2-(6-((6S,8R)-8-methyl-7-(2,2,2-trifluoroethyl)-6,7,8,9-tetrahydro-3H-pyrazolo[4,3-f]isoquinolin-6-yl)pyridin-3-yl)-2-azaspiro[3.5]nonan-7-yl)methyl)-8-oxo-2,3,4,4a,5,6,8,10-octahydropyrazino[1,2-a]pyrrolo[3,4-g]quinoxalin-9(1H)-yl)piperidine-2,6-dione]",0.001 to 0.01 µM
< 0.01 µM,"C[C@@H]1Cc2c(ccc3[nH]ncc23)[C@@H](c2c(F)cc(N3CCC4(CC3)CN(CC(=O)N3CCN5c6cc7c(cc6OC[C@@H]5C3)C(=O)N(C3CCC(=O)NC3=O)C7)C4)cc2F)N1CC(F)F (stereo partly drawn) [Compound B21, 3-((S)-3-(2-(7-(4-((6S,8R)-7-(2,2-difluoroethyl)-8-methyl-6,7,8,9-tetrahydro-3H-pyrazolo[4,3-f]isoquinolin-6-yl)-3,5-difluorophenyl)-2,7-diazaspiro[3.5]nonan-2-yl)acetyl)-8-oxo-1,2,3,4,4a,5,8,10-octahydro-9H-pyrazino[1′,2′: 4,5][1,4]oxazino[2,3-f]isoindol-9-yl)piperidine-2,6-dione]",< 0.001 µM
0.01 to 0.1 µM,"COc1cc(N2CCC3(CCN(CC(=O)N4Cc5cc6c(cc5C4)C(=O)N(C4CCC(=O)NC4=O)C6=O)CC3)CC2)ccc1[C@@H]1c2ccc3[nH]ncc3c2C[C@@H](C)N1CC(F)F (stereo partly drawn) [Compound B51, 6-(2-(9-(4-((6S,8R)-7-(2,2-difluoroethyl)-8-methyl-6,7,8,9-tetrahydro-3H-pyrazolo[4,3-f]isoquinolin-6-yl)-3-methoxyphenyl)-3,9-diazaspiro[5.5]undecan-3-yl)acetyl)-2-(2,6-dioxopiperidin-3-yl)-6,7-dihydropyrrolo[3,4-f]isoindole-1,3(2H,5H)-dione]",> 0.01 µM
< 0.01 µM,"C[C@@H]1Cc2c(ccc3[nH]ncc23)[C@@H](c2c(F)cc(NC3CN(CC(=O)N4CCN5c6ccc7c(c6OC[C@H]5C4)CN(C4CCC(=O)NC4=O)C7=O)C3)cc2F)N1CC(F)F (stereo partly drawn) [Compound B101, 3-((R)-7-(2-(3-((4-((6S,8R)-7-(2,2-difluoroethyl)-8-methyl-6,7,8,9-tetrahydro-3H-pyrazolo[4,3-f]isoquinolin-6-yl)-3,5-difluorophenyl)amino)azctidin-1-yl)acetyl)-1-oxo-1,3,5,5a,6,7,8,9-octahydro-2H-pyrazino[1′,2′:4,5][1,4]oxazino[2,3-e]isoindol-2-yl)piperidine-2,6-dione]",0.001 to 0.01 µM
< 0.01 µM,"C[C@@H]1Cc2c(ccc3[nH]ncc23)[C@@H](c2ccc(N3CC4(CCC(CN5CCN6c7cc8c(cc7OC[C@@H]6C5)C(=O)N(C5CCC(=O)NC5=O)C8)CC4)C3)cn2)N1CC(F)F (stereo partly drawn) [Compound B88, 3-((S)-3-((2-(6-((6S,8R)-7-(2,2-difluoroethyl)-8-methyl-6,7,8,9-tetrahydro-3H-pyrazolo[4,3-f]isoquinolin-6-yl)pyridin-3-yl)-2-azaspiro[3.5]nonan-7-yl)methyl)-8-oxo-1,2,3,4,4a,5,8,10-octahydro-9H-pyrazino[1′,2′:4,5][1,4]oxazino[2,3-f]isoindol-9-yl)piperidine-2,6-dione]",0.001 to 0.01 µM
